Measurements: patent US8470844B2, “Imidazoacridinone derivative compounds and methods for their use” (Technion Research & Development Foundation Limited, priority 2008, dated 2013)

Legend:
A549 cells = assay: MTT cytotoxicity assay, parental A549 cells; format: cell-based, Human; settings: 96 hours exposure, mean of at least three experiments
Method: (§1) Tissue culture: Human non-small cell lung cancer A549 cells and T-cell leukemia CCRF-CEM cells were grown under monolayer conditions or up to a maximal density of 10^6 cells/ml (for CCRF-CEM cells) in RPMI-1640 medium (GIBCO) supplemented with 10% fetal calf serum, 2 mM glutamine, 100 μg/ml penicillin and 100 μg/ml streptomycin (Biological Industries, Beth-Haemek, Israel) in a humid atmosphere of 5% CO2. Drug resistant A549/K1.5 cells with ABCG2 overexpression were maintained under a continuous drug selection with 1.5 μM C-1305. Bram, E. E., et al., (2007) Biochem Pharmacol 74(1), 41-53.
(§2) Cytotoxicity and growth inhibition assays: The cytotoxic activity of the various IA antitumor agents was determined using the MTT assay. Poindessous, V., et al., (2003) Clin Cancer Res 9(7), 2817-2825.
(§3) Exponentially growing cells were seeded at 5×10^3 cells/well in 24-well plates (2 ml medium/well). Following an overnight incubation, cells were exposed to different drug concentrations for 96 hours. Cellular viability was determined by adding the tetrazolium salt MTT for 4 h at 37° C., followed by solubilization of the intracellular precipitated formazan in 1 ml DMSO and absorbance was determined by a microplate reader (ASYS Hitech GmbH, Austria). Drug concentrations required to inhibit cell growth by 50% (IC50) compared with untreated controls were determined from the curves of survival versus drug concentrations using the SlideWrite software (Advanced Graphics Software, Inc., Encinitas, Calif.). Resistance folds (RF) were calculated by dividing the IC50 value of the resistant cells by that of the parental cell line. Values presented are means of at least three independent experiments, each performed in duplicates.

A549/K1.5 cells = assay: MTT cytotoxicity assay, ABCG2-overexpressing A549/K1.5 cells; format: cell-based, Human; settings: for IC50: ABCG2-overexpressing A549/K1.5 cells, 96 hours exposure, MTT; for RF (resistance fold): IC50 of A549/K1.5 cells divided by IC50 of parental A549 cells
Method: as §1, §2, §3
Quantitative evaluation of ABCG2 interaction with various IA derivatives: The extent of ABCG2-mediated resistance was expressed using the Resistance Fold (RF) parameter representing the ratio between the IC50 values of the resistant cells and parental cells. Likewise, ABCG2-dependent differential accumulation of IAs in ABCG2-overexpressing A549/K1.5 cells was compared using the ratio of IA accumulation in the presence or absence of the potent ABCG2 inhibitor FTC. This was termed the FTC-dependent Accumulation Fold (AF) and was determined for each IA at a constant IA concentration of 10 μM.

ABCG2 (A549/K1.5 cells) [1] = molecular target: T1, ABCG2 (A549/K1.5 cells) (Homo sapiens, UniProt Q9UNQ0); assay: Fluorescence microscopy of nuclear accumulation of IAs in A549/K1.5 cells; format: cell-based; settings: 10 μM IA, 1 hr, presence or absence of 5 μM FTC
T1 construct: Drug resistant A549/K1.5 cells with ABCG2 overexpression were maintained under a continuous drug selection with 1.5 μM C-1305; endogenous in cells; host or cells: A549/K1.5 (C-1305-selected subline of human non-small cell lung cancer A549)
T1 sequence (Q9UNQ0 1-655): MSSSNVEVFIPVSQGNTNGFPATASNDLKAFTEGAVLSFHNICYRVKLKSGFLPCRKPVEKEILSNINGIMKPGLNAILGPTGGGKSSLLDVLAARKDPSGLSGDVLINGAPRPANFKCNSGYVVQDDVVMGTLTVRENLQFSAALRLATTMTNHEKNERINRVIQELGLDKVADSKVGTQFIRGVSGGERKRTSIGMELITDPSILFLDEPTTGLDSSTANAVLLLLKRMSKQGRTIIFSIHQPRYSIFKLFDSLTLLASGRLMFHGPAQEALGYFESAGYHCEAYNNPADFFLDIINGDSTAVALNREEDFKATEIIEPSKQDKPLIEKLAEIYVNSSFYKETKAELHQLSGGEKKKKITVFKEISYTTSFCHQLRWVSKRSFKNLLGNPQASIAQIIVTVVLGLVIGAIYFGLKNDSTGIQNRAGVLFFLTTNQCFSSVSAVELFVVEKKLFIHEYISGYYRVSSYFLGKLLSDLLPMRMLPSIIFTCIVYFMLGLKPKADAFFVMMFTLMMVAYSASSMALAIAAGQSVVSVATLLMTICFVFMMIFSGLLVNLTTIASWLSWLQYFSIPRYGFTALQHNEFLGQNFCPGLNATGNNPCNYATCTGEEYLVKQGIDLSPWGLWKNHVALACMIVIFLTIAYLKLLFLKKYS
Method: In immunofluorescence microscopy of plasma membrane targeting of ABCG2 and nuclear accumulation of IAs, cells (1×10^4/well) were seeded in 24-well plates (1 ml medium/well) and incubated for 2 days, following which some wells were supplemented with 10 μM IA-containing medium±5 μM FTC and incubated for 1 h at 37° C. Cells were then washed twice with ice-cold PBS containing 0.1% BSA and blocked for 10 min at 4° C. with PBS containing 5% BSA. Cells were then washed once with ice-cold PBS containing 0.1% BSA and incubated for 30 min at 4° C. with a Phycoerythrin-conjugated, affinity-purified 5D3 mouse anti-human ABCG2 monoclonal antibody (1:100; eBioscience). Unspecific fluorescence was determined using cells that were incubated only with a secondary Phycoerythrin (PE)-conjugated goat anti-mouse IgG (1:200; Jackson Immunoresearch Labs, West Grove, Pa.). Cells were then washed twice and subjected to fluorescence microscopy using a DMIRE2 fluorescence microscope equipped with a DC300FX camera (Leica Microsystems, Wetzlar, Germany).
In order to exclude the possibility that differential subcellular accumulation of IA derivatives is the basis of the observed difference in cytotoxicity and cellular fluorescence, A549/K1.5 cells were incubated with 10 μM of selected IA derivatives from both group A and B in the presence or absence of FTC and subjected to fluorescence microscopy.

[2] = test system: untransfected HEK293 cells; assay: Flow cytometric accumulation in untransfected HEK293 cells; format: cell-based, Human; settings: 1 μM IA, ±5 μM FTC
Method: For cytotoxicity and accumulation experiments, cells were grown in drug-free medium for at least one week prior to the experiments. Human embryonic kidney cells (HEK293) and their stable transfectants overexpressing the R482, G482 and T482 ABCG2 were grown in the above RPMI-1640 medium supplemented with 2 mg/ml G-418. Bram, E. E., et al., (2006) Cancer Chemother Pharmacol 58(6), 826-834.
IA derivative and tetramethylrosamine (TMR) accumulation in parental HEK293 and their HEK293/ABCG2 R/G/T482 transfectants were carried out as described herein with the a slight amendment of using a single IA concentration of 1 μM ±FTC (5 μM) for the selected as well as 0.1 μM for TMR accumulation. Robey, R. W., et al., (2003) Br J Cancer 89(10), 1971-1978. Cellular fluorescence was determined using a FACSCalibur (BD Bioscience, San Jose, Calif. USA) flow cytometer. FL1-H excitation of IAs was at 488 nm and emission was collected at 525 nm, whereas FL2-H excitation of TMR was at […] and emission was collected at 574 nm. Flow cytometric results are presented as means±SD of 3 independent experiments.
Bram, E. E., et al., (2006) Cancer Chemother Pharmacol 58(6), 826-834.

ABCG2 (A549/K1.5 cells) [3] = molecular target: T1, ABCG2 (A549/K1.5 cells); assay: Flow cytometric IA accumulation in A549/K1.5 cells with or without fumitremorgin C; format: cell-based
Method: In this assay, one ml aliquots of A549/K1.5 or CCRF-CEM cell suspensions (1×10^6 cells/ml) in growth medium containing 20 mM Hepes at pH 7.3 were distributed into 1.5 ml polypropylene Eppendorf test tubes. […] Rabindran, S. […] Alternatively, in time-course experiments, IA derivatives at a constant concentration of 10 μM were added to a CCRF-CEM cell suspension incubated at 37° C., and 1 ml aliquots were removed at variable time points up to 1 hour. Following incubation, test tubes were transferred to ice and centrifuged at 4° C. Cells were then washed twice and re-suspended in ice-cold PBS containing 1% fetal calf serum and kept in the dark at 4° C. until analysis. […] Quantitative evaluation of ABCG2 interaction with various IA derivatives: The extent of ABCG2-mediated resistance was expressed using the Resistance Fold (RF) parameter representing the ratio between the IC50 values of the resistant cells and parental cells.

SMILES | IC50 (A549 cells) | IC50 (A549/K1.5 cells) | RF (resistance fold) (A549/K1.5 cells) | nuclear accumulation (fluorescence microscopy) (ABCG2 (A549/K1.5 cells) [1]) | hypersensitivity of A549/K1.5 cells (A549/K1.5 cells; versus parental A549 cells) | resistance of A549/K1.5 cells (A549/K1.5 cells; versus parental A549 cells) | resistance of A549/K1.5 cells (in words) (A549/K1.5 cells; versus parental A549 cells) | efflux (in words) [2] | ABCG2-mediated extrusion / interaction with ABCG2 (in words) (ABCG2 (A549/K1.5 cells) [3])
CN(C)CCNc1ccc2ncn3c4ccccc4c(=O)c1c23.Cl [C-1176] | 2.35 ± 0.75 µM | 1.21 ± 0.65 µM | 0.51 | – | – | – | – | – | –
CN(C)CCCNc1ccc2ncn3c4ccccc4c(=O)c1c23.Cl [C-1212] | 1.89 ± 0.42 µM | 1.93 ± 0.84 µM | 1.02 | – | – | – | – | – | –
Cc1nc2ccc(NCCN(C)C)c3c(=O)c4ccccc4n1c23.Cl [C-1213] | 12.3 ± 2.5 µM | 18.3 ± 2.4 µM | 1.49 | – | – | – | – | – | –
CN(C)CCCCCNc1ccc2ncn3c4ccccc4c(=O)c1c23.Cl [C-1266] | 2.81 ± 0.27 µM | 0.56 ± 0.002 µM | 0.20 | comparable and significant nuclear accumulation regardless of ABCG2 inhibition by FTC | 5.0 fold | – | – | – | –
Cc1nc2ccc(NCCN(C)C)c3c(=O)c4cc(O)ccc4n1c23.Cl [C-1309] | 0.05 ± 0.007 µM | 3.22 ± 0.18 µM | 60.80 | – | – | 61 fold | prominent resistance | not from untransfected HEK293 cells | –
CCCCN(CCCC)CCNc1ccc2nc(C)n3c4ccc(O)cc4c(=O)c1c23.Cl [C-1315] | 1.69 ± 0.26 µM | 3.46 ± 0.16 µM | 2.05 | – | – | – | – | – | failed to display any significant interaction with ABCG2
CCN(CC)CCNc1ccc2ncn3c4ccc(OC)cc4c(=O)c1c23.Cl [C-1330] | 2.16 ± 0.27 µM | 0.97 ± 0.08 µM | 0.45 | – | 2.2 fold | – | – | – | –
CCN(CC)CCCNc1ccc2ncn3c4ccc(O)cc4c(=O)c1c23.Cl [C-1335] | 0.09 ± 0.004 µM | 1 ± 0.25 µM | 11.10 | – | – | – | prominent resistance | – | –
CN(C)CCCNc1ccc2ncn3c4ccc(O)cc4c(=O)c1c23.Cl [C-1371] | 0.04 ± 0.006 µM | 0.7 ± 0.03 µM | 17.90 | – | – | – | prominent resistance | – | –
COc1ccc2c(c1)c(=O)c1c(NCCCN(C)C)ccc3nc(C)n2c31.Cl [C-1375] | 1.3 ± 0.06 µM | 1.25 ± 0.11 µM | 0.96 | – | – | – | – | – | –
CCN(CC)CCCNc1ccc2nc(C)n3c4ccc(OC)cc4c(=O)c1c23.Cl [C-1379] | 1.07 ± 0.03 µM | 0.68 ± 0.06 µM | 0.63 | – | – | – | – | – | –
CCN(CC)CCNc1ccc2ncn3c4ccccc4c(=O)c1c23.Cl [C-1415] | 2.7 ± 0.21 µM | 2.38 ± 0.12 µM | 0.88 | – | – | – | – | – | –
CCN(CC)CCNc1ccc2ncn3c4cc(O)ccc4c(=O)c1c23.Cl [C-1419] | 2.92 ± 0.42 µM | 31.3 ± 2.55 µM | 10.70 | – | – | – | prominent resistance | – | –
CN(C)CCCCCNc1ccc2ncn3c4ccc(O)cc4c(=O)c1c23.Cl [C-1492] | 1.69 ± 0.12 µM | 17.2 ± 1.95 µM | 10.10 | – | – | – | prominent resistance | – | –
CCN(CC)CCNc1ccc2ncn3c4c(OC)ccc(OC)c4c(=O)c1c23.Cl [C-1503] | 3.5 ± 0.64 µM | 3.09 ± 0.74 µM | 0.88 | – | – | – | – | – | –
CCN(CC)CCNc1ccc2ncn3c4ccc(C)cc4c(=O)c1c23.Cl [C-1554] | 2.02 ± 0.33 µM | 3.07 ± 0.8 µM | 1.51 | – | – | – | – | – | –
CCN(CC)CCNc1ccc2ncn3c4ccc(C(C)(C)C)cc4c(=O)c1c23.Cl [C-1558] | 1.48 ± 0.25 µM | 2.51 ± 0.17 µM | 1.70 | – | – | – | – | – | –
CN(C)CCNc1ccc2ncn3c4ccc(O)cc4c(=O)c1c23.Cl [C-1584] | 0.01 ± 0.002 µM | 0.25 ± 0.01 µM | 19.20 | – | – | – | prominent resistance | – | –
CCN(CC)CCNc1ccc2ncn3c4c(O)cccc4c(=O)c1c23.Cl [C-1633] | 2.26 ± 0.33 µM | 9.83 ± 1.44 µM | 4.35 | – | – | – | prominent resistance | – | –
CCN(CC)CCCCCCCCCNc1ccc2ncn3c4ccc(O)cc4c(=O)c1c23.Cl [C-2018] | 1.54 ± 0.31 µM | 2.13 ± 0.62 µM | 1.38 | – | – | – | – | – | failed to display any significant interaction with ABCG2
